Target: T1, recombinant human PLA2G2A (sPLA2-IIA) (Homo sapiens, UniProt P14555)
T1 sequence (P14555 21-144): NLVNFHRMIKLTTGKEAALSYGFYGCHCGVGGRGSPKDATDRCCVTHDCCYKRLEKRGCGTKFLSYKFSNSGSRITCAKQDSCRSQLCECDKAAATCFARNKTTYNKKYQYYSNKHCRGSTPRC
Experiment: Susceptibility of phospholipid digestion by sPLA2-IIA (lens pieces in ATF with and without sPLA2, LCMS of released fatty acid)
Settings: phospholipid present in a silicone hydrogel contact lens body

Row | Susceptibility to digestion by sPLA2 enzymes found in human tears | SMILES
1 | not susceptible to digestion | CCCCCCCCCCCCCC(=O)OC[C@H](COP(=O)([O-])OCC[N+](C)(C)C)OC(=O)CCCCCCCCCCCCC [DMPC, 1,2-dimyristoyl-sn-glycero-3-phosphocholine]
2 | not susceptible to digestion | CCCCCCCC/C=C\CCCCCCCC(=O)OC[C@H](COP(=O)([O-])OCC[N+](C)(C)C)OC(=O)CCCCCCC/C=C\CCCCCCCC [DOPC, 1,2-dioleoyl-sn-glycero-3-phosphocholine]
